Assay results: patent US7138242B2, “Olfactory receptor expression libraries and methods of making and using them” (Johns Hopkins University, priority 1998, dated 2006)
Entries after “also recorded” stand apart in the source; their conditions may differ.

How the values were obtained:
[1] = system: full-length I-C6 receptor fused to translocation domain (rhodopsin tag); experiment: Ca2+ imaging, full-length I-C6 receptor with rhodopsin tag in HEK-293 cells; assay type: cell-based, mouse
Description: PCR products were digested with PstI and BspEI restriction enzymes before size fractionation, purification and ligation into the pCMV-Rho/M4NC vector (see FIG. 1A). The vector ligation products were transformed into E. coli and 480 clones were placed in 96-well plates. […] Pools of cells from a single column of the plates (8 wells) were grown in a 50 ml culture and plasmid DNA prepared. Insert-containing vectors containing: the 5′-untranslated region of the rhodopsin gene, which included its coding region for the initiation methionine and the next 19 residues; joined to a full-length cDNA for a mouse olfactory receptor (M4 or I-C6), under the control of the CMV promoter, were also prepared. The full-length coding region of olfactory receptors mI7 and I-C6 were obtained by screening a mouse (129 SV/J) genomic phage (λFIX-II) library (2×10^6 independent clones) using ^32P-labeled DNA fragments (of TMII through VII sequence) of the respective receptors under stringent conditions (hybridized at 0.2×SSC at 65° C.). DNA fragments encoding the full-length receptors were cloned into pBluescript (Stratagene) and sequenced.
(§1) These transfected cells were then tested for their ability to functionally respond to ligand-receptor binding. The ligand, the adrenergic agonist isoproterenol, was “bath” applied to the transfected cells and single cell Ca^2+-imaging was performed. Cells were pre-loaded with the Ca^2+-sensitive fluorescent dye FURA-2 AM (Molecular Probes) by bathing in serum-free DMEM containing 4 μM of the membrane permeant chemical for 1 hr at 37° C., then washed with a standard bath solution (130 mM NaCl, 2 mM CaCl2, 5 mM KCl, 10 mM glucose, 10 mM Na.HEPES/pH 7.4 at room temperature). For each experiment, a glass coverslip with FURA-2 loaded HEK 293 cells was introduced into an open-topped, longitudinal microperfusion chamber (300 μl bath volume mounted on a Zeiss Axiovert 135 microscope equipped with an F Fluar 40×/1.30 oil-immersion lens. The cells were superfused with test solutions typically for 30 to 40 seconds (5 ml/application) and washed out with 5 ml of bath solution at the end of each application. Each test solution was freshly diluted and manually applied with a micropipette into the chamber. Because of this manual procedure, there could be several seconds of delay in actual application from electronic tick marks used to define the beginning of application in each graph. At the same time, the solution flow might not be completely laminar. In most cases, the onset of Ca2+ rise in response to a specific solution occurred within 15 seconds of the beginning of solution application, though longer delays were sometimes observed. Acetylcholine was applied at the end of each experiment at 10 μM for 15–20 seconds. Ratiometric Ca^2+ measurements were performed as described by Grynkiewicz (1985) 260:3440–3450, with modifications using the Zeiss/Attofluor-Ratiovision imaging system. At 5-second intervals, the cells were sequentially illuminated for less than 100 ms, first at 340 nm and then at 380 nm. Fluorescence emission at 510 nm was monitored for each excitation wavelength via an intensified CCD camera. Averaged pixel intensities within 40 to 100 regions of interest, corresponding to 40 to 100 individual cells, were digitized and stored on a computer. Attofluor-Ratiovision software (Atto Instruments) was used to determine the Ca^2+-dependent fluorescence signal expressed as the F340/F380 ratio.
To determine if these physiologic responses were caused by ligand interaction with a full-length 7-membrane receptor, a genomic clone of the entire I-C6 receptor coding sequence was isolated and used to make a chimeric molecule incorporating the tranlocation domain of the invention (the “rhodopsin tag” sequence). The full-length I-C6 receptor retained the same stereo-selectivity as a chimeric receptor construct whose only I-C6 sequence was the transmembrane domains II through VII (i.e., the odorant/ligand binding domain). […]

[2] = system: mouse olfactory receptor TM II–VII chimeric receptor library (pools of clones); experiment: Ca2+ imaging screen of 80 library chimeric receptors (10 pools of eight constructs) against 26 odorants in HEK-293 cells with Gα15,16; assay type: cell-based
Description: HEK-293 cells (obtained from the ATCC) were grown in DMEM supplemented with 10% fetal bovine serum, penicillin (100 U/ml), streptomycin (100 μg/ml) and L-glutamine (2 mM) in 5% CO2. Before transfection, the cells were seeded onto poly-L-lysine-coated 10.5×35×0.17 mm glass coverslips (Bellco) placed in the 60 mm culture dishes. Calcium phosphate-mediated transfections were performed in a 60 mm dish with 3 to 4 μg of receptor construct DNA, 1 μg of pCIS Gα 15 and Gα16 expression vector (Offermanns (1995) supra). 2 μg of pBluescript carrier DNA, and 0.3 μg of pRSV-T antigen expression vector (Gorman (1990) DNA and Protein Eng. Tech. 2:3–9). After 5 to 7 hr incubation, the cells were washed once with PBS containing 0.5 mM EDTA and 10% DMSO, then with PBS before continuing growth in regular media for 40–50 hr.
as §1
The 7-transmembrane domain region TM II–VII expressing vector libraries of the invention were expressed in this cell expression system. Various odorant were screened for their ability to generate a physiologic response in the form of a calcium transient, as above. Eighty plasmid clones arrayed in microtiter plates were pooled into 10 groups of eight constructs each, and co-transfected with Gα15,16 into HEK-293 cells. […]

[3] = system: I-C6 chimeric olfactory receptor (TM II–VII); experiment: Ca2+ imaging, individual clone I-C6 (TM II–VII chimeric) in HEK-293 cells with Gα15,16; assay type: cell-based, mouse; details: (−) vs (+) isomer
Description: These transfected cells were then tested for their ability to functionally respond to ligand-receptor binding. The ligand, the adrenergic agonist isoproterenol, was “bath” applied to the transfected cells and single cell Ca^2+-imaging was performed. Cells were pre-loaded with the Ca^2+-sensitive fluorescent dye FURA-2 AM (Molecular Probes) by bathing in serum-free DMEM containing 4 μM of the membrane permeant chemical for 1 hr at 37° C., then washed with a standard bath solution (130 mM NaCl, 2 mM CaCl2, 5 mM KCl, 10 mM glucose, 10 mM Na.HEPES/pH 7.4 at room temperature). […] Fluorescence emission at 510 nm was monitored for each excitation wavelength via an intensified CCD camera. […] Attofluor-Ratiovision software (Atto Instruments) was used to determine the Ca^2+-dependent fluorescence signal expressed as the F340/F380 ratio. […]

CC(C)=CCCC(C)CC=O (single isomer, unassigned; (-)) [(−) citronellal]
qualitative rank order of potency for binding and activating the I-C6 receptor [1]: (−)citronellal>(+)citronellal, citronellyl bromide>28 other odorants | intracellular Ca2+ response ([1]; 1 μM): responding | stereo-selectivity of the Ca2+ response ([1]; (−) vs (+) isomer): preferred | intracellular Ca2+ response after a prior positive response ([1]; applied immediately after 30 μM (+) citronellal (desensitization)): lack of response | intracellular Ca2+ response ([1]; control experiments lacking Gα15,16): no response | intracellular Ca2+ response of a clone pool ([2]; 10 μM, odorants applied sequentially): transient increases in Ca^2+ | response of a library receptor ([2]; micromolar concentrations, three receptors, respectively): responded | stereo-selectivity of the Ca2+ response [3]: selective; also recorded: preferred
